We go through six compounds from US11414404B2, “Compounds for the treatment of BRAF-associated diseases and disorders” (Array BioPharma Inc., priority 2019, dated 2022).

Data set [1] concerns A375-luciferase intracranial tumor xenografts. The experiment in a line: Intracranial A375-luciferase efficacy and survival mouse tumor model. In kind it is in vivo, female nu/nu NCr mice. To be noted: for Survival (# Animals on day 90): n=10. As for the experimental part:
Female nu/nu NCr mice from Envigo (Indianapolis, Ind.) were obtained at 5-6 weeks of age and housed in groups of 5. Following a one week minimum acclimation period, mice received orthotopic (i.c.) intracranial injections of 3.0×10^3 A375-luciferase tumor cells suspended in a volume of 10 μL 0.9% sterile Dulbecco's phosphate buffered saline (DPBS) using the top-down approach (Laursen and Belknap, 1986). Seven days post cell implant (Day 1), animals were randomized and sorted into five groups (n=10/group).
Test compounds were given at a dose volume of 10 mL/kg, and vehicles were matched for each group to control for dosing stress, i.e. all groups received twice daily (BID) dose administration by oral gavage (PO) at the relevant dose volumes and schedule shown in Table 9. Tumor growth was monitored by measuring luciferase activity twice per week. Total flux/mouse can vary by an order of magnitude on day 1 of study start (start of dosing). The total flux was normalized per mouse by assigning the first measurement of flux on […] as 100%. Body weight loss as an indicator of tumor progression was determined daily during the dosing interval and then as needed (at least once weekly). Survival was evaluated through day 90 (30 days post-dosing cessation).

Data set [2] deals with BCRP. The conditions noted are these: reported in the literature; cited from earlier work.
The target in a further data set is P-gp (MDR1) (Homo sapiens (Human), UniProt P08183). The conditions noted are these: pig, LLC-PK1, 2 h, 1 µM.
Chain of P-gp (MDR1) (P08183 whole entry, species assumed): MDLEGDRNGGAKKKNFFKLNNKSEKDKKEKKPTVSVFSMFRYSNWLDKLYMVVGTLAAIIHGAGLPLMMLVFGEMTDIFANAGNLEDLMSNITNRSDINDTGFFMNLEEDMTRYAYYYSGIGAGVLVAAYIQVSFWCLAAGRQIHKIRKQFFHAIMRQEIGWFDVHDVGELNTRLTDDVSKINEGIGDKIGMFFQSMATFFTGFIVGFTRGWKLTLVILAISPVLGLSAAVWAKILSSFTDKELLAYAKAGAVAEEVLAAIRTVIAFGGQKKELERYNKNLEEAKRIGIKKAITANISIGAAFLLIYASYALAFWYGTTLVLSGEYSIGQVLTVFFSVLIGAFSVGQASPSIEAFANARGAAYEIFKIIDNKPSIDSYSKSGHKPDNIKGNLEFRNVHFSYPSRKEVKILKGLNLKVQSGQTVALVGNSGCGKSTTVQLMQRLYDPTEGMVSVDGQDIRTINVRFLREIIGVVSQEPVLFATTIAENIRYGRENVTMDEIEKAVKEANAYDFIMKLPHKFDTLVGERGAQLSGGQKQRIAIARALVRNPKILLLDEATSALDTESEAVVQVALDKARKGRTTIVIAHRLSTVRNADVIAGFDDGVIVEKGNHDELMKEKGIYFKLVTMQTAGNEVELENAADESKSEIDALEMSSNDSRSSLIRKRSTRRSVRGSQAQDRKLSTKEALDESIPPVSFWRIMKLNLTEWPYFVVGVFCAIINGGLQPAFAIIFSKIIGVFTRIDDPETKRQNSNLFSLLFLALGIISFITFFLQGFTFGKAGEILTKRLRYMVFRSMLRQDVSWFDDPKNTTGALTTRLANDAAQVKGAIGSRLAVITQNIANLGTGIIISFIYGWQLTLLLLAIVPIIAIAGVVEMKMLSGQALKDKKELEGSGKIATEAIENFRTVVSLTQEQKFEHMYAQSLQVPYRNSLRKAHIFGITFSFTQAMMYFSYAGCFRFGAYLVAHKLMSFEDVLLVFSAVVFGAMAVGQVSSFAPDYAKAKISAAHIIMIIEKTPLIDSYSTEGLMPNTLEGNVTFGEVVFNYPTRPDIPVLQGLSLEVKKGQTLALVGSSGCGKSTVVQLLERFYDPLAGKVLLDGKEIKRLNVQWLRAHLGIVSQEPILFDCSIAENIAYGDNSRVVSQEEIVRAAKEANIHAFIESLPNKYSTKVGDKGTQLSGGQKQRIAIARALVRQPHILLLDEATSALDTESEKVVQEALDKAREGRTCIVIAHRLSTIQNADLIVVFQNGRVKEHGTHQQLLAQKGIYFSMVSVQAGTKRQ
In data set [3] the target is full-length FLAG-tagged B-Raf(V600E) (Homo sapiens (Human), UniProt P15056, V600E). The experiment in a line: BRAF V600E enzyme assay (TR-FRET competitive displacement of fluorescent tracer). It counts as binding. To be noted: averaged IC50; 60 min at ambient temperature; 11-point dosing, top dose 10 μM. An excerpt:
(§1) A competitive displacement assay was configured for B-Raf that monitors the amount of a fluorescently-tagged “tracer” bound to B-Raf via TR-FRET from an anti-tag Eu-labeled antibody also bound to B-Raf.
(§2) [formula] • where: • Xmax Average Uninhibited Controls • Xmin Average Background
(§3) A 4-parameter logistic model was the fit to the POC data for each compound.
(In general: In TR-FRET formats the signal depends on donor and acceptor labels being close together.)

Data set [4] concerns the target BCRP (Homo sapiens (Human), UniProt Q9UNQ0). The conditions noted are these: dog, 2 h, 1 µM.
The subject of data set [5] is LLC-PK1 or MDCKII cell monolayer. The conditions noted are these: 2 h, 1 µM.
Procedure: Both LLC-PK1 and MDR1 transfected LLC-PK1 cells were cultured and plated according to manufacturer's recommendations with the exception that the passage media contained only 2% fetal bovine serum to extend passage time out to seven days.
BCRP transfected MDCKII cells were cultured and plated according to manufacturer's recommendations. Assay conditions included with and without the BCRP-specific inhibitor, K0143, at a concentration of 0.3 μM to ascertain the contribution of BCRP to the efflux value of the test compound.
Both positive and negative controls were used to assess functionality of P-gp or BCRP efflux in the assays. […] Final organic concentration in the assay was 1%. All dosing solutions contained 10 μM lucifer yellow to monitor LLC-PK1 or MDCKII cell monolayer integrity.
For the apical to basolateral determination (A to B), 75 μL of the test article in transport buffer were added to the apical side of the individual transwells and 250 μL of basolateral media, without compound or lucifer yellow, were added to each well. For the basolateral to apical determination (B to A), 250 μL of test article in transport buffer were added to each well and 75 μL transport buffer, without compound or lucifer yellow, were added to each transwell. All tests were performed in triplicate, and each compound was tested for both apical to basolateral and basolateral to apical transport. The plates were incubated for 2 hours on a Lab-Line Instruments Titer Orbital Shaker (VWR, West Chester, Pa.) at 50 rpm and 37° C. with 5% CO2. All culture plates were removed from the incubator and 50 μL of media were removed from the apical and basolateral portion of each well and added to 150 μL of 1 μM labetalol in 2:1 acetonitrile (acetonitrile): H2O, v/v.
These values were accepted when found to be below 2% for apical to basolateral and 5% basolateral to apical flux across the MDR1-transfected LLC-PK1 or BCRP-transfected MDCKII cell monolayers. The plates were sealed and the contents of each well analyzed by LC-MS/MS. The compound concentrations were determined from the ratio of the peak areas of the compound to the internal standard (labetalol) in comparison to the dosing solution.
The LC-MS/MS system was comprised of an HTS-PAL autosampler (Leap Technologies, Carrboro, N.C.), an HP1200 HPLC (Agilent, Palo Alto, Calif.), and a MDS Sciex 4000 Q Trap system (Applied Biosystems, Foster City, Calif.). […] The total run time, including re-equilibration, for a single injection was 1.2 minutes. Mass spectrometric detection of the analytes was accomplished using the ion spray positive mode.
where Cd, V, t and C0 are the detected concentration (μM), the volume on the dosing side (mL); the incubation time (s) and the initial dosing concentration (μM), respectively. The calculations for Papp were made for each replicate and then averaged.
The target of data set [6] is N-terminally GST-tagged B-Raf(V600K) (Homo sapiens, UniProt P15056, V600K). The experiment in a line: BRAF V600K enzyme assay (TR-FRET competitive displacement of fluorescent tracer). It counts as binding. The conditions noted are these: averaged IC50; 60 min at ambient temperature; 11-point dosing, top dose 10 μM.
Chain of N-terminally GST-tagged B-Raf(V600K) (P15056 2-766 V600K limits assumed): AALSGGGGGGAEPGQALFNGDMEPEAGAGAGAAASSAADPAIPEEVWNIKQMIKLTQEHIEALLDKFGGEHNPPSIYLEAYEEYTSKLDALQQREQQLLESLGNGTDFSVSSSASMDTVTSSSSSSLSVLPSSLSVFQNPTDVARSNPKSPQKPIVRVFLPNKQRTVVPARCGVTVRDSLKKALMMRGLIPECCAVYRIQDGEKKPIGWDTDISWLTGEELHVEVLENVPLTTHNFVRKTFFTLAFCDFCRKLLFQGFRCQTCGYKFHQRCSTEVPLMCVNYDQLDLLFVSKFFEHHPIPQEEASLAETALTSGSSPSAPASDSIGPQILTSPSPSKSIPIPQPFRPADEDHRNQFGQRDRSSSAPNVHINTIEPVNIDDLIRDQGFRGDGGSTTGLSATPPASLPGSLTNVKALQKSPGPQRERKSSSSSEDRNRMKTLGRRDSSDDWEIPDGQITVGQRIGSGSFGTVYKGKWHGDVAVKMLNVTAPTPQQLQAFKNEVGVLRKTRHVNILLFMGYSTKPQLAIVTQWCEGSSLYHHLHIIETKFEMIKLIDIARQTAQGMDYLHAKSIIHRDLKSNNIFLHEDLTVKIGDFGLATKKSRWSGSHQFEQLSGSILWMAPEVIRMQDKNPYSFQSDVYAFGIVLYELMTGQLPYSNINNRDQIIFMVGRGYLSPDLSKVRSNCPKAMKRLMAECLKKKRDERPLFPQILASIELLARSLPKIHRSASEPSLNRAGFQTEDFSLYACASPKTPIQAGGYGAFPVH
Source text: as §1, §2, §3

The nature of data set [7]: PK (free brain-to-free plasma ratio) (mouse). In kind it is in vivo. The conditions noted are these: unbound brain-to-unbound plasma concentration ratio; male CD-1 mice; oral gavage 10 mg/kg; sampling 2-24 hours. Here is the method: PK (Free Brain-to-Free Plasma Ratio) (Mouse)
The ability of representative compounds to penetrate the BBB in mice was determined by evaluating the unbound brain-to-unbound plasma (also referred to as free brain-to-free plasma) concentration ratio in male CD-1 mice.
Brain samples were stored at −20±5° C. prior to analysis. Concentrations of test compound in mouse brain homogenate were determined by liquid chromatography tandem mass spectrometry (LC-MS/MS) following protein precipitation with acetonitrile. A 12-point calibration curve, ranging from 0.5 to 10,000 ng/mL, was prepared in duplicate. A solution of 400 μg/mL of test compound in dimethyl sulfoxide (DMSO) was serially diluted (3-fold) in 100% DMSO, and then 2.5 μL of each standard solution was added to 100 μL of naïve male CD-1 mice brain homogenate. To mimic the extraction in the standard curve, 2.5 μL of DMSO was added to all test samples. Both calibration and test brain homogenate samples were spiked with 10 μL of an IS (1 μg/mL of a structural analog). Brain homogenate was generated by adding 0.75 mL of 4:1 water:MeOH to each brain sample followed by homogenization for 1 minute with bead beater tubes a 6 m/s using an MP Fast Prep-24®. Proteins were precipitated from 100 μL of brain homogenate sample by the addition of 300 μL of acetonitrile. […] A 100 μL aliquot of each supernatant was transferred via a 550 μL Personal Pipettor (Apricot Designs, Monrovia, Calif.) to 96-well plates and diluted 1:1 with HPLC grade water. The resulting plates were sealed with aluminum for LC-MS/MS analysis.
Brain-to-plasma ratios were calculated using the concentration of compound measured in the brain divided by the concentration of compound measured in the plasma. Brain-to-plasma ratios were always generated from a single animal and time point. Free brain-to-free plasma ratios were calculated by multiplying the brain-to-plasma ratio by the in vitro brain homogenate free fraction divided by the in vitro plasma free fraction using the following equation: (B/P)*(Bfu/Pfu).

One may read the IC50 as the concentration that inhibits the measured activity by half. A high value points to weaker potency in that assay.

Chain of BCRP (Homo sapiens (Human), UniProt Q9UNQ0) (Q9UNQ0 whole entry, species assumed): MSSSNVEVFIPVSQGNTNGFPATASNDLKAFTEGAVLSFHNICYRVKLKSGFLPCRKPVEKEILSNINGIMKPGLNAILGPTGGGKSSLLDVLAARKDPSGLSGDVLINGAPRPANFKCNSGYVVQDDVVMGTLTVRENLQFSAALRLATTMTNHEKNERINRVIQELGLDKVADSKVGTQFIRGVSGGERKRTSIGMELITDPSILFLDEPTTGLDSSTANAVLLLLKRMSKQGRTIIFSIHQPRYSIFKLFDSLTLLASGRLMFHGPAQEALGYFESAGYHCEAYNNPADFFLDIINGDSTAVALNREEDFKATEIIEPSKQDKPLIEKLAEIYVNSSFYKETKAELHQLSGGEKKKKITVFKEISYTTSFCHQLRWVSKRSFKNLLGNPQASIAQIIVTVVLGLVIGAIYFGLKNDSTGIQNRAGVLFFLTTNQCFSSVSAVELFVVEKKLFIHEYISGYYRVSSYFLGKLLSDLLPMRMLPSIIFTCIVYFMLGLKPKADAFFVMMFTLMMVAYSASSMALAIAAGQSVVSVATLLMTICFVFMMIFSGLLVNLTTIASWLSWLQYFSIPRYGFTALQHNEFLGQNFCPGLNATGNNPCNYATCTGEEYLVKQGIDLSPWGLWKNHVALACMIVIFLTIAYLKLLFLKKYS
Chain of full-length FLAG-tagged B-Raf(V600E) (P15056 whole entry V600E): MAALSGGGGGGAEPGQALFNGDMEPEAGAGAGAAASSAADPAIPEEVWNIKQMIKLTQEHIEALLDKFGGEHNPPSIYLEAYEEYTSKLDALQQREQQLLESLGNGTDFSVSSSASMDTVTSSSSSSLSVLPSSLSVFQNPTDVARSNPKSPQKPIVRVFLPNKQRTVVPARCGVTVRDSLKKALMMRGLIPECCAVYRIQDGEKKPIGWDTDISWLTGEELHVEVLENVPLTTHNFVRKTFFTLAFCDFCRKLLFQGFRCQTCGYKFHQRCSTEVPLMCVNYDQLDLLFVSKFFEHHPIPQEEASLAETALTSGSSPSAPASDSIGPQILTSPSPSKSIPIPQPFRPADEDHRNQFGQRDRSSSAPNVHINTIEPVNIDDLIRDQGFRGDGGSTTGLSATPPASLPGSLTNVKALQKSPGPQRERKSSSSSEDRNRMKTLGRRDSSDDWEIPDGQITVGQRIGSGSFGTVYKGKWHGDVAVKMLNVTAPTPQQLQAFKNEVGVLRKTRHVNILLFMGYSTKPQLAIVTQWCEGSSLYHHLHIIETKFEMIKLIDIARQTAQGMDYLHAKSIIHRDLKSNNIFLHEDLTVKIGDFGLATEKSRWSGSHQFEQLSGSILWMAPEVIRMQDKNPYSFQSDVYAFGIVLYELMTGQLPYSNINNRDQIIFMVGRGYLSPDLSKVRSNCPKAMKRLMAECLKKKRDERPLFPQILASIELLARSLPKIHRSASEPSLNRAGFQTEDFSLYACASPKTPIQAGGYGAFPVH

Take `Cc1c(Nc2c(F)ccc(NS(=O)(=O)CCCF)c2Cl)ccc2ncn(C)c(=O)c12` [Example 82, N-(2-chloro-3-((3,5-dimethyl-4-oxo-3,4-dihydroquinazolin-6-yl)amino)-4-fluorophenyl)-3-fluoropropane-1-sulfonamide]: the “Survival (# Animals on day 90)” value in data set [1] (Example 82 10 mg/kg BID PO 60 days) and in data set [1] (Example 82 30 mg/kg BID PO 60 days) was 6/10 throughout. In addition, in data set [1] (both doses employed (10 and 30 mg/kg BID PO)), the “efficacy as a single agent in the model” value is reported as “highly effective”. Also, in data set [1] (single agent, BID for 60 consecutive days PO), the “effect on tumor growth (total bioluminescence, FIG. 15)” value was “significant effect”.

Turning to `CC(C)(C)c1nc(-c2cccc(NS(=O)(=O)c3c(F)cccc3F)c2F)c(-c2ccnc(N)n2)s1` [dabrafenib], in the data set on BCRP [2], the BCRP efflux ratio is listed as 21.0.

For `CCCS(=O)(=O)Nc1ccc(F)c(C(=O)c2c[nH]c3ncc(-c4ccc(Cl)cc4)cc23)c1F` [vemurafenib], the BCRP efflux ratio in the data set with BCRP [2] was 495.

As to “N-(3-((3,5-dimethyl-4-oxo-3,4-dihydroquinazolin-6-yl)amino)-2-fluoro-5-methylphenyl)propane-1-sulfonamide [Example 46]”, the MDR1 efflux ratio at P-gp (MDR1) was determined as 1.43. The compound further showed an IC50 in data set [3] of 148 nM. Moreover, on BCRP [4], the BCRP efflux ratio was 1.48. The Permeability in data set [5] is 30.74 *10^−6 cm/s.

As for “N-(3-chloro-4-((3,5-dimethyl-4-oxo-3,4-dihydroquinazolin-6-yl)oxy)-5-fluoropyridin-2-yl)propane-1-sulfonamide [Example 63]”, the MDR1 efflux ratio at P-gp (MDR1) is listed as 1.3. The IC50 in data set [6] was 2.4 nM; in data set [3], 2.8 nM. For the same compound, the “B/P ratio (free)” value in data set [7] is on record as 0.34-0.4. Also, the BCRP efflux ratio at BCRP [4] was determined as 7.7. The Permeability in data set [5] is on record as 26.09 *10^−6 cm/s.

On to “N-{2-chloro-3-[(3,5-dimethyl-4-oxo-3,4-dihydroquinazolin-6-yl)oxy]-4-fluorophenyl}propane-1-sulfonamide [Example 55]”, for which the MDR1 efflux ratio on P-gp (MDR1) stood at 1.1. For the same compound, the IC50 stood at 3.1 nM in data set [6] and 5.4 nM in data set [3]. Besides, the “B/P ratio (free)” value in data set [7] is on record as 0.46-0.51. The BCRP efflux ratio on BCRP [4] is on record as 0.83.
